The values below come from ChEMBL document CHEMBL1671810, “Identification of a novel scaffold for allosteric inhibition of wild type and drug resistant HIV-1 reverse transcriptase by fragment library screening” (J Med Chem, 2011).

SMILES strings stand for the structures. Activity calls are given as the source filed them. The calls are words filed in the database; no cut-off is given here.

Test [1] deals with T1, Human immunodeficiency virus type 1 reverse transcriptase (Human immunodeficiency virus 1, UniProt Q72547, K103N). In words: Binding affinity to HIV1 BH10 isolate reverse transcriptase K103N mutant expressed in Escherichia coli BL21(DE3). More on the design: species or system Human immunodeficiency virus type 1 BH10.
The nature of test [2]: Inhibition of wild type HIV1 BH10 isolate reverse transcriptase catalytic activity expressed in Escherichia coli BL21(DE3) by UV-vis spectrophotometry. More on the design: species or system Human immunodeficiency virus type 1 BH10.
The nature of test [3]: Binding affinity to wild type HIV1 BH10 isolate reverse transcriptase expressed in Escherichia coli BL21(DE3). More on the design: species or system Human immunodeficiency virus type 1 BH10.
The target of test [4] is T2, Human immunodeficiency virus type 1 reverse transcriptase (Human immunodeficiency virus 1, UniProt Q72547, L100I). The test can be described thus: Binding affinity to HIV1 BH10 isolate reverse transcriptase L100I mutant expressed in Escherichia coli BL21(DE3). More on the design: species or system Human immunodeficiency virus type 1 BH10.
In test [5] the target is T3, Human immunodeficiency virus type 1 reverse transcriptase (Human immunodeficiency virus 1, UniProt Q72547, Y181C). The test can be described thus: Binding affinity to HIV1 BH10 isolate reverse transcriptase Y181C mutant expressed in Escherichia coli BL21(DE3). More on the design: species or system Human immunodeficiency virus type 1 BH10.
Test [6] deals with T2, Human immunodeficiency virus type 1 reverse transcriptase. The test can be described thus: Inhibition of HIV1 BH10 isolate reverse transcriptase L100I mutant catalytic activity expressed in Escherichia coli BL21(DE3) by UV-vis spectrophotometry. More on the design: species or system Human immunodeficiency virus type 1 BH10.
Test [7] has as its target T1, Human immunodeficiency virus type 1 reverse transcriptase. In words: Inhibition of HIV1 BH10 isolate reverse transcriptase K103N mutant catalytic activity expressed in Escherichia coli BL21(DE3) by UV-vis spectrophotometry. More on the design: species or system Human immunodeficiency virus type 1 BH10.
In test [8] the target is T3, Human immunodeficiency virus type 1 reverse transcriptase. In words: Inhibition of HIV1 BH10 isolate reverse transcriptase Y181C mutant catalytic activity expressed in Escherichia coli BL21(DE3) by UV-vis spectrophotometry. More on the design: species or system Human immunodeficiency virus type 1 BH10.
The subject of test [9] is Human immunodeficiency virus type 1 BH10. In words: Displacement of nevirapine from wild type HIV1 BH10 isolate reverse transcriptase expressed in Escherichia coli BL21(DE3) by competition assay.

`C/C(=N\O)c1ccc2c(c1)CCC2`: the Kd in test [1] was 50 µM; in test [3], 300 µM; in test [4], 200 µM; in test [5] it was 50 µM. The molecule further came in with an IC50 in [2] of 39 µM.
As for `CC(C)N1CCC(CCc2c[nH]cn2)CC1`, in test [3], the Kd stood at 88 µM.
The molecule `COC(=O)C1=C(C)NC(=S)NC1C` (stereo not given) displayed an IC50 in test [2] of 570 µM. Also, the Kd in test [3] is 380 µM; in [5], 700 µM.
In turn, `CCCCCCCCNC(=O)NCc1ccc(O)c(CO)c1` returned a Kd in test [3] of 190 µM.
Consider `O=C(c1ccncc1)c1ccc(Cl)cc1`, for which the Kd in test [1] was 600 µM; in test [3], > 500 µM; in test [4], 60 µM; in [5], 700 µM. For the same molecule, in test [2], the IC50 stood at 96 µM.
`O=C1CCc2c(Br)cccc21`: the Kd in test [1] amounted to 20 µM; in [3], 270 µM; in test [4], 40 µM; in test [5], 40 µM. The IC50 is 25 µM in test [6], 4 µM in [2], 16 µM in [7] and 16 µM in test [8].
For the molecule `Cc1cc2c(cc1[N+](=O)[O-])OCO2`, the Kd is 20 µM in test [1], 79 µM in [3], 40 µM in test [4] and 100 µM in test [5]. In test [2], the IC50 was 150 µM.
Take `Nc1cccc(-c2ccccc2)n1`: the outcome in [9] was inactive.
On to `O=C1c2ccccc2CCc2ncccc21`, for which the Kd was 50 µM in test [1], 180 µM in test [3], 200 µM in [4] and 300 µM in test [5]. This molecule also gave an IC50 in [2] of 430 µM.
For the molecule `Cc1ccc(O)cc1`, the result in test [9] was inactive.
As to `C=CCNc1scnc1S(=O)(=O)c1ccccc1`, the Kd turned out to be 700 µM in test [1], 210 µM in [3], 90 µM in [4] and 200 µM in test [5]. In addition, in test [2], half-maximal inhibition (IC50) required 5 µM.
